Data: publication PMC8245078, “Development of novel benzofuran-isatin conjugates as potential antiproliferative agents with apoptosis inducing mechanism in Colon cancer” (Journal of Enzyme Inhibition and Medicinal Chemistry, 2021)
pIC50: −log10 of the molar value. Like-named read-outs stand apart in the source and are kept apart here.

Key:
[1] = system: cleaved PARP in SW-620 cells; experiment: Western blot analysis of cleaved PARP; assay type: cell-based, human; conditions: SW-620, 5 μM and 10 μM, 24 h
Source text: To further examine the possible mechanism of apoptosis, the effect of compounds 5a and 5d on certain apoptosis-related proteins was studied. Bcl2 protein as a critical component of the mitochondrial apoptotic pathway is reported to be overexpressed in numerous tumours causing survival of cancer cell[62]. In addition, it was reported that caspase activation during apoptosis leads to proteolytic cleavage of several cellular substrates participating in DNA reparation including [poly (ADP-ribose) polymerase][63]. Therefore, the impact of compounds 5a and 5d on the anti-apoptotic protein Bcl2 and the level of cleaved PARP was examined (Figure 7). […]
2.5. Western Blot Analysis
All cells were seeded in a 100 mm dish (1 × 10^6 cells per dish) in 5% CO2 at 37 °C in the appropriate culture medium. The cells with around 50% confluency were treated with compounds for 24h. At the experiment day, cells were washed with 1x PBS, harvested and lysed in RIPA lysis buffer, combined with protease inhibitors, (Sigma-Aldrich, St. Louis, MO, USA) as described previously (39)). The total protein concentration was evaluated by the colorimetric Bradford protein assay (BIO-RAD inc, CA, USA) at 595 nm absorbance. Lysates were loaded in […]
equal concentration and separated by sodium dodecyl sulfate-polyacrylamide gel electrophoresis (SDS-PAGE) and then transferred to a nitrocellulose membrane by semi-dry. […]

[2] = system: HT-29 colorectal cancer cell line; experiment: MTT cell viability assay; assay type: cell-based, human; conditions: for inhibition of HT-29 cancer cells viability: 10 µM, 24 h, MTT
Method: In the present investigation a new set of benzofuran–isatin hybrids (5a–e and 7a–i) was synthesised to be evaluated for their potential anticancer activity towards two human colorectal cancer cell lines, SW-620 and HT-29. […] Both, SW-620 and HT-29 cells were treated with 10 µM of each compound for 24 h and the percent cell viability was calculated using MTT assay.
For this reason, compounds 5a and 5d were pursued for further studies. Starting with determination of IC50s and cytotoxic selectivity studies. Serial concentrations of compounds 5a and 5d were used to examine their impact on cell viability using MTT protocol. Results of concentration vs percent viability were charted, and the IC50 was calculated for SW-620 and HT-29 cell lines using Graph Pad prism 8 (Figure 4). […]
[(Ti-Tz)/Tz] x 100 for concentrations for which Ti<Tz […]
SW620 and HT29 colorectal cancer cell lines and HFF-1 fibroblast (ATCC, Rockville, USA) were used. HT29 cells were cultured and maintained in Dulbecco’s Modified Eagles Medium (DMEM) (GIBCO, by Thermo Fischer Scientific, NY, USA) supplemented with 10% fetal bovine serum (FBS), 100 units/mL penicillin, and 100 μg streptomycin. SW620 and HFF-1 cells were cultured in Roswell Park Memorial Institute medium (RPMI-1640) (GIBCO, by Thermo scientific, NY, USA) supplemented with 10% FBS and 1% penicillin and streptomycin (Napolitano et al., 2015). All cultures were incubated at 37 °C and humidified atmosphere of 5% […]
2.3. Cell Viability Assay
The cytotoxicity effect of compounds on the colorectal cancer cell lines, SW620 and HT29 in addition to the normal human fibroblasts was measured by MTT (3-(4, 5-dimethylthiazol-2-yl)-2,5-diphenyltetrazolium bromide) (Sigma-Aldrich, St. Louis, MO, USA) as previously described. Briefly, cells were seeded in 96 well culture plates at 5000/well for HT29 and 10,000/well for SW620 for 24 h. Cells were then incubated with different compounds from WAG1 series (1-15) 24h at 37 °C and humidified 5% CO2 incubator. Freshly prepared 10 μl of 3-(4,5-dimethylthiazol-2-yl)-2,5-diphenyltetrazolium bromide (MTT 5 mM) solution were added to the cells and further incubated for 2 h. Thereafter, 100 μl of dimethyl sulfoxide (DMSO) were added in each well and the crystals were dissolved through careful pipetting. […]
VA, USA). The experiments were performed in triplicate for each condition. […]
The total protein concentration was evaluated by the colorimetric
Bradford protein assay (BIO-RAD inc, CA, USA) at 595 nm absorbance. Lysates were loaded in […]

RPMI-8226 = experiment: NCI single dose screening (10 µM); assay type: cell-based; conditions: Homo sapiens
[3] = Homo sapiens, HT-29, HT-29, MTT
[4] = RPMI-8226, Leukaemia, single dose 10^−5 M, read-out: GI% (cell growth inhibition percentage)

Compound: COc1ccc2c(c1)/C(=N/NC(=O)c1oc3ccccc3c1C)C(=O)N2 [Compound 5d]
- level of cleaved PARP (Western blot, in words) [1]: significant increase
- inhibition of HT-29 cancer cells viability [2]: > 50%
- pIC50 ([2]; HT-29, MTT): 5.19
- pIC50 [2, 3]: 5.01

Compound: Cc1c(C(=O)N/N=C2\C(=O)Nc3ccc(F)cc32)oc2ccccc12 [Compound 5b]
- inhibition at 10 µM (RPMI-8226; [4]): < 10%

Compound: Cc1c(C(=O)N/N=C2\C(=O)Nc3ccc(Br)cc32)oc2ccccc12 [Compound 5c]
- inhibition at 10 µM (RPMI-8226; [4]): < 10%

Compound: Cc1c(C(=O)N/N=C2\C(=O)N(Cc3ccccc3)c3ccccc32)oc2ccccc12 [Compound 7d]
- inhibition at 10 µM (RPMI-8226; RPMI-8226, read-out: GI% (cell growth inhibition percentage)): < 10%

Compound: CCCN1C(=O)/C(=N\NC(=O)c2oc3ccccc3c2C)c2ccccc21 [Compound 7b]
- inhibition of HT-29 cancer cells viability [2]: > 50%

Compound: Cc1c(C(=O)N/N=C2\C(=O)Nc3ccccc32)oc2ccccc12 [Compound 5a]
- level of cleaved PARP (Western blot, in words) [1]: significant increase
- inhibition of HT-29 cancer cells viability [2]: > 50%
- pIC50 ([2]; HT-29, MTT): 5.06
- pIC50 [2, 3]: 5.03
